# The NIST ThermoML archive (doi:10.1021/acs.jced.7b00106)
# Numbers after ± are expanded uncertainties.
# Conditions: Liquid, Hot wire method
smiles,measurement,setting,value
"FC(F)(F)/C=C/Cl [(E)-1-chloro-3,3,3-trifluoroprop-1-ene]",thermal conductivity,"242.05 K, 36072 kPa",0.1119 ± 0.0047 W/m/K
same,thermal conductivity,"242.06 K, 13440 kPa",0.1056 ± 0.0033 W/m/K
same,thermal conductivity,"242.08 K, 7089 kPa",0.1037 ± 0.0036 W/m/K
same,thermal conductivity,"242.09 K, 28062 kPa",0.1106 ± 0.0034 W/m/K
same,thermal conductivity,"242.11 K, 583 kPa",0.101 ± 0.0031 W/m/K
same,thermal conductivity,"242.13 K, 20421 kPa",0.1074 ± 0.0033 W/m/K
same,thermal conductivity,"242.18 K, 13439 kPa",0.105 ± 0.0037 W/m/K
same,thermal conductivity,"242.22 K, 7107 kPa",0.1031 ± 0.0039 W/m/K
same,thermal conductivity,"242.24 K, 585 kPa",0.1007 ± 0.0034 W/m/K
same,thermal conductivity,"242.32 K, 63843 kPa",0.1195 ± 0.0059 W/m/K
same,thermal conductivity,"242.33 K, 53263 kPa",0.1172 ± 0.0038 W/m/K
same,thermal conductivity,"242.34 K, 36064 kPa",0.112 ± 0.0034 W/m/K
same,thermal conductivity,"242.34 K, 43841 kPa",0.1149 ± 0.0058 W/m/K
same,thermal conductivity,"242.41 K, 28063 kPa",0.1093 ± 0.0053 W/m/K
same,thermal conductivity,"242.45 K, 20418 kPa",0.1078 ± 0.0035 W/m/K
same,thermal conductivity,"242.46 K, 53261 kPa",0.1167 ± 0.0052 W/m/K
same,thermal conductivity,"242.46 K, 63839 kPa",0.1194 ± 0.0037 W/m/K
same,thermal conductivity,"242.47 K, 43873 kPa",0.1147 ± 0.0066 W/m/K
same,thermal conductivity,"242.49 K, 36067 kPa",0.1119 ± 0.0036 W/m/K
same,thermal conductivity,"242.5 K, 13437 kPa",0.1053 ± 0.0032 W/m/K
same,thermal conductivity,"242.54 K, 7100 kPa",0.1033 ± 0.005 W/m/K
same,thermal conductivity,"242.55 K, 28067 kPa",0.11 ± 0.006 W/m/K
same,thermal conductivity,"242.56 K, 597 kPa",0.101 ± 0.0031 W/m/K
same,thermal conductivity,"242.59 K, 20435 kPa",0.1072 ± 0.0043 W/m/K
same,thermal conductivity,"242.65 K, 13436 kPa",0.105 ± 0.0032 W/m/K
same,thermal conductivity,"242.69 K, 7107 kPa",0.1029 ± 0.0039 W/m/K
same,thermal conductivity,"242.76 K, 53251 kPa",0.1166 ± 0.0052 W/m/K
same,thermal conductivity,"242.76 K, 63833 kPa",0.1199 ± 0.0037 W/m/K
same,thermal conductivity,"242.79 K, 43839 kPa",0.115 ± 0.0038 W/m/K
same,thermal conductivity,"242.81 K, 36066 kPa",0.1121 ± 0.0035 W/m/K
same,thermal conductivity,"242.88 K, 28066 kPa",0.1102 ± 0.0039 W/m/K
same,thermal conductivity,"242.91 K, 63824 kPa",0.1193 ± 0.004 W/m/K
same,thermal conductivity,"242.93 K, 20434 kPa",0.1075 ± 0.0035 W/m/K
same,thermal conductivity,"242.93 K, 53255 kPa",0.1164 ± 0.004 W/m/K
same,thermal conductivity,"242.96 K, 43854 kPa",0.1143 ± 0.0049 W/m/K
same,thermal conductivity,"242.98 K, 36047 kPa",0.1118 ± 0.0039 W/m/K
same,thermal conductivity,"242.99 K, 13448 kPa",0.1056 ± 0.0034 W/m/K
same,thermal conductivity,"243.04 K, 7102 kPa",0.1029 ± 0.0034 W/m/K
same,thermal conductivity,"243.05 K, 28059 kPa",0.1096 ± 0.0045 W/m/K
same,thermal conductivity,"243.08 K, 588 kPa",0.101 ± 0.0039 W/m/K
same,thermal conductivity,"243.11 K, 20431 kPa",0.1071 ± 0.0034 W/m/K
same,thermal conductivity,"243.18 K, 13440 kPa",0.105 ± 0.0034 W/m/K
same,thermal conductivity,"243.22 K, 7112 kPa",0.1026 ± 0.0033 W/m/K
same,thermal conductivity,"243.23 K, 63821 kPa",0.1197 ± 0.0037 W/m/K
same,thermal conductivity,"243.26 K, 584 kPa",0.1004 ± 0.004 W/m/K
same,thermal conductivity,"243.26 K, 53253 kPa",0.1164 ± 0.0036 W/m/K
same,thermal conductivity,"243.29 K, 43835 kPa",0.1146 ± 0.0048 W/m/K
same,thermal conductivity,"243.3 K, 36069 kPa",0.1121 ± 0.0037 W/m/K
same,thermal conductivity,"243.4 K, 28075 kPa",0.1098 ± 0.0041 W/m/K
same,thermal conductivity,"243.42 K, 63814 kPa",0.1191 ± 0.0039 W/m/K
same,thermal conductivity,"243.44 K, 53247 kPa",0.1163 ± 0.0035 W/m/K
same,thermal conductivity,"243.46 K, 20431 kPa",0.1074 ± 0.0034 W/m/K
same,thermal conductivity,"243.49 K, 43850 kPa",0.114 ± 0.0039 W/m/K
same,thermal conductivity,"243.51 K, 36041 kPa",0.1117 ± 0.0034 W/m/K
same,thermal conductivity,"243.53 K, 13443 kPa",0.1053 ± 0.0061 W/m/K
same,thermal conductivity,"243.58 K, 7097 kPa",0.103 ± 0.0032 W/m/K
same,thermal conductivity,"243.6 K, 28066 kPa",0.1094 ± 0.0033 W/m/K
same,thermal conductivity,"243.63 K, 586 kPa",0.1005 ± 0.004 W/m/K
same,thermal conductivity,"243.66 K, 20425 kPa",0.107 ± 0.0036 W/m/K
same,thermal conductivity,"243.74 K, 63809 kPa",0.1193 ± 0.0054 W/m/K
same,thermal conductivity,"243.78 K, 53242 kPa",0.1168 ± 0.0036 W/m/K
same,thermal conductivity,"243.8 K, 7115 kPa",0.1027 ± 0.0033 W/m/K
same,thermal conductivity,"243.83 K, 43827 kPa",0.1143 ± 0.0056 W/m/K
same,thermal conductivity,"243.85 K, 580 kPa",0.1001 ± 0.0042 W/m/K
same,thermal conductivity,"243.85 K, 36062 kPa",0.1118 ± 0.0041 W/m/K
same,thermal conductivity,"243.96 K, 28066 kPa",0.1097 ± 0.0033 W/m/K
same,thermal conductivity,"243.96 K, 63804 kPa",0.119 ± 0.0036 W/m/K
same,thermal conductivity,"244 K, 53243 kPa",0.1163 ± 0.0035 W/m/K
same,thermal conductivity,"244.02 K, 20445 kPa",0.1073 ± 0.0048 W/m/K
same,thermal conductivity,"244.06 K, 43851 kPa",0.1139 ± 0.0036 W/m/K
same,thermal conductivity,"244.09 K, 36043 kPa",0.1116 ± 0.0034 W/m/K
same,thermal conductivity,"244.19 K, 28067 kPa",0.1093 ± 0.0033 W/m/K
